# Values quoted from earlier work as cited in patent publication US20230321005A1, “PHYTONADIONE COMPOSITIONS” (CIPLA LIMITED, priority 2020, published 2023).
# Assays:
# [1] = forms multiple peroxide and epoxy impurities
smiles,measurement,setting,value
"CC1=C(C/C=C(\C)CCC[C@H](C)CCC[C@H](C)CCCC(C)C)C(=O)c2ccccc2C1=O [Phytonadione, 2 - methyl - 3 - phytyl - 1, 4 - naphthoquinone]",Solubility in aqueous solvents,,insoluble
same,Susceptibility to oxidative and photolytic degradation,[1],highly susceptible
